Data: ChEMBL document CHEMBL1201862, “PubChem BioAssay data set” (2004)
Activity calls are given as the source filed them.

Assays:
[1] = target: T1, Ubiquitin-conjugating enzyme E2 N (Homo sapiens, UniProt P61088); type: functional
T1 sequence (P61088 whole entry): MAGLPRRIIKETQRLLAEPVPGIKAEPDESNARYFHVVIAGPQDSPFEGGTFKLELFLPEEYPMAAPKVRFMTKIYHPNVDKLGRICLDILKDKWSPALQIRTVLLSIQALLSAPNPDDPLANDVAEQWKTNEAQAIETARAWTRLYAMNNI

[2] = target: T2, Bcl-2-related protein A1 (Mus musculus, UniProt Q07440); type: functional;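 also: confirmatory dose–response counterscreen on Bfl-1, used to check hits from a UBC13 polyubiquitin inhibitor campaign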
T2 sequence (Q07440 whole entry): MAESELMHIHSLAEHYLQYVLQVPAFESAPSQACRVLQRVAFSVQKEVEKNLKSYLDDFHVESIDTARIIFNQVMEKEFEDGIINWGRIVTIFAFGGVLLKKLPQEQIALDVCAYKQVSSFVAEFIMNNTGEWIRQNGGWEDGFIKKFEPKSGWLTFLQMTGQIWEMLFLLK

[3] = target: T1, Ubiquitin-conjugating enzyme E2 N; type: functional; remark: listed apart in the source
[4] = target: Glyceraldehyde-3-phosphate dehydrogenase (Homo sapiens, UniProt P04406)
[5] = target: Alkaline phosphatase, placental type (Homo sapiens, UniProt P05187); test: human placental alkaline phosphatase inhibition – biochemical, luminescence, confirmation (AID 1512); type: functional
[6] = target: T3, Alkaline phosphatase, tissue-nonspecific isozyme (Homo sapiens, UniProt P05186); test: potency against alkaline phosphatase TNAP – biochemical, luminescent, dose response, SAR follow-up (AID 1056)
T3 sequence (P05186 whole entry): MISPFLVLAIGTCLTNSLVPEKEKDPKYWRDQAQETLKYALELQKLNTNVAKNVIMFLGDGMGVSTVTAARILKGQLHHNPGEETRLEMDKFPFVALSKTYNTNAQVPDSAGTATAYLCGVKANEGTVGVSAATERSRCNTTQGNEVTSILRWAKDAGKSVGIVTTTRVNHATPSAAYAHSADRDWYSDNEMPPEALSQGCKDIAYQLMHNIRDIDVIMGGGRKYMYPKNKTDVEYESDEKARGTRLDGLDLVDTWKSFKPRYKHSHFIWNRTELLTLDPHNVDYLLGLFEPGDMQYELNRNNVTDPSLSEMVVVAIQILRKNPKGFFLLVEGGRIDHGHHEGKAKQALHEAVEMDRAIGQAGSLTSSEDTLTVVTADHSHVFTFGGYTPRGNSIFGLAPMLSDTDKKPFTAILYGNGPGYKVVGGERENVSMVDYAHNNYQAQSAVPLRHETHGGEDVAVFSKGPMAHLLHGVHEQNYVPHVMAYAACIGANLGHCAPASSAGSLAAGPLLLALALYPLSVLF

[7] = target: T4, Replicative DNA helicase DnaB (Mycobacterium tuberculosis, UniProt P9WMR3); test: DnaB intein splicing inhibitors, dose response, biochemical, cell-free fluorescence (AID 449749); type: functional
T4 sequence (P9WMR3 whole entry): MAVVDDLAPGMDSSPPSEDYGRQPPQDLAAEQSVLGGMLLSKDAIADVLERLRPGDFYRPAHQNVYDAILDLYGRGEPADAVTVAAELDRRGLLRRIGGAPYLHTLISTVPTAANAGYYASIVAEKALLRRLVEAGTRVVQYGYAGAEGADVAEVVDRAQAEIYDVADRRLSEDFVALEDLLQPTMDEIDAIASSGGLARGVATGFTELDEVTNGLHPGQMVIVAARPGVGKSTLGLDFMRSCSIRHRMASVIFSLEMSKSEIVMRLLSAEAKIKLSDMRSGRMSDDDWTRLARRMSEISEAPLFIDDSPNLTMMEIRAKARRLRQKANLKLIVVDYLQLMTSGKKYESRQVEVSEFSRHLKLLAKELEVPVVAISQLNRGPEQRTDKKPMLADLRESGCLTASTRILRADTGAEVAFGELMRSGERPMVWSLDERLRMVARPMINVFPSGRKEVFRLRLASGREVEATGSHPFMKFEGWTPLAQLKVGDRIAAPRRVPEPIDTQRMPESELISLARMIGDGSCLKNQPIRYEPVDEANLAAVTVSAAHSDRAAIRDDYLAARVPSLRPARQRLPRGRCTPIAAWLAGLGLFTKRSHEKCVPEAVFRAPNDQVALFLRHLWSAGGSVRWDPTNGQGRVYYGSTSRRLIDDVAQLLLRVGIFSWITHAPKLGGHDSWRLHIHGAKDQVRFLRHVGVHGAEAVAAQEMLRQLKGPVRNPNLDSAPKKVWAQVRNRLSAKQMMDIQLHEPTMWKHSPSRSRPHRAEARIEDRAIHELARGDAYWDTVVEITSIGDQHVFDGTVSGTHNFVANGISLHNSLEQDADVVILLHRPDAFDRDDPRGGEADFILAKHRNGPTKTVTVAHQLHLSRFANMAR

[8] = target: T5, Orexin/Hypocretin receptor type 1 (Homo sapiens, UniProt O43613); test: (§1) Fluorescence-based cell-based high throughput dose response assay for antagonists of the orexin 1 receptor (OX1R; HCRTR1). [Related pubchem assays (depositor defined):AID434989, AID435008, AID463079, AID485270, AID492963, AID492964, AID492965, AID493232, AID504717, AID504718]; type: functional
T5 sequence (O43613 whole entry): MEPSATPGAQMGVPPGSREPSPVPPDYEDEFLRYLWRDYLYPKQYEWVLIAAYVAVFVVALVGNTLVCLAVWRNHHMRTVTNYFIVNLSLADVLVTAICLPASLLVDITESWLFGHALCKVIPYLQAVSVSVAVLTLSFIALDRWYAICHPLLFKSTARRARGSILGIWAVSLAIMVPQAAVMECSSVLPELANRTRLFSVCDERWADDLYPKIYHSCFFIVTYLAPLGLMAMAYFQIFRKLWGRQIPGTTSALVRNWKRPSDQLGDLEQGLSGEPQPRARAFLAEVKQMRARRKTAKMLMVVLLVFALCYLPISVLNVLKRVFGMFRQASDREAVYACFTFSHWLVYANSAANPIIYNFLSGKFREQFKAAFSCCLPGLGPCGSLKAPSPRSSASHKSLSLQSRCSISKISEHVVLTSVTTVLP

[9] = target: T6, Protein RecA (Mycobacterium tuberculosis, UniProt P9WHJ3); test: Fluorescence Cell-Free Homogeneous Dose Retest to Identify Inhibitors of RecA-Intein Splicing Activity. [Related pubchem assays (depositor defined):AID2097, AID2223, AID489010, AID492950]; type: functional
T6 sequence (P9WHJ3 whole entry): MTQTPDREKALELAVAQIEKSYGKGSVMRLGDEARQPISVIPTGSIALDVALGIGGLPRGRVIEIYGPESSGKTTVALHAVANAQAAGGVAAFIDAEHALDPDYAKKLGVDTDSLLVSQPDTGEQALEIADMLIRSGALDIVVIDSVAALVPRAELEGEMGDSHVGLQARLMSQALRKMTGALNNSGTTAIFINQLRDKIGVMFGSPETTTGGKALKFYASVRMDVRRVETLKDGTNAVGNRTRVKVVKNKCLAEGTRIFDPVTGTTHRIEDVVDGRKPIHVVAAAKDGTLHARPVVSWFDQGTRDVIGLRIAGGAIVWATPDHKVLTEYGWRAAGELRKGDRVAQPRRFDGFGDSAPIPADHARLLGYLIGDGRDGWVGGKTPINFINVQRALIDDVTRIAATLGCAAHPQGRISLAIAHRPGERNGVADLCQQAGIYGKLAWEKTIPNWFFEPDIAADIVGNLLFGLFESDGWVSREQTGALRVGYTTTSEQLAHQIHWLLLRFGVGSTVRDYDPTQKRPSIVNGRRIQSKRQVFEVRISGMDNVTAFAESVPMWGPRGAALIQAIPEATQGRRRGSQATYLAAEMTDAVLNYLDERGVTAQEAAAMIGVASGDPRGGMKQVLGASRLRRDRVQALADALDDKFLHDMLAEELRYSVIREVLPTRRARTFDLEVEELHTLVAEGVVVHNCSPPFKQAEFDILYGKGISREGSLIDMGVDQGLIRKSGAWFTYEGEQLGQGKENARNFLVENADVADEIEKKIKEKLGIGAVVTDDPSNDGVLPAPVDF

[10] = tested on: CHO-K1; test: (§2) Counterscreen for antagonists of the orexin 1 receptor (OX1R; HCRTR1): Homogeneous time resolved fluorescence (HTRF)-based cell-based dose response assay to identify antagonists of the parental CHO-K1 cell line. [Related pubchem assays (depositor defined):AID434989, AID435008, AID463079, AID485270, AID492963, AID492964, AID492965, AID493232, AID504699, AID504701]; type: functional; conditions: Cricetulus griseus
[11] = as §2, with “Fluorescence-based” for “Homogeneous time resolved fluorescence (HTRF)-based”, “cell-based high throughput” for “cell-based”, “CHO” for “CHO-K1”; type: functional
[12] = target: T5, Orexin/Hypocretin receptor type 1; test: as §1, with “Homogeneous Time Resolved Fluorescence (HTRF)-based” for “Fluorescence-based”; type: functional
[13] = target: G-protein coupled receptor 55 (Homo sapiens, UniProt Q9Y2T6); test: blockers of GPR55 signalling, imaged – imaging, image-based, counter-screen for GPR35 antagonist project, SAR follow-up (AID 2397); type: functional
[14] = target: T7, G-protein coupled receptor 35 (Homo sapiens, UniProt Q9HC97); test: inhibition of zaprinast-stimulated GPR35 beta-arrestin translocation – imaging, U2OS, beta-arrestin-GFP, zaprinast agonist, primary screen (AID 2058); type: functional;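 also: antagonist potency meaning inhibition of agonist-induced arrestin redistribution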
[15] = target: T7, G-protein coupled receptor 35; test: SAR Analysis for the identification of Selective Antagonists of ERK1/2 Activity in GPR35-Overexpressing U2OS Cells. [Related pubchem assays: 2079, 2058 ]; type: functional, cell-based
[16] = target: Intestinal-type alkaline phosphatase (Homo sapiens, UniProt P09923); test: human intestinal alkaline phosphatase activators, dose response, biochemical, luminescence, uHTS hits (AID 463120); type: functional
[17] = Luminescence Cell-Based Dose Retest to Confirm Inhibitors of Cancer Stem Cells. [Related pubchem assays (depositor defined):AID2717, AID2721]; type: functional; conditions: Homo sapiens
[18] = target: Glucose-6-phosphate 1-dehydrogenase (Homo sapiens, UniProt P11413); test: inhibition of Homo sapiens G6PD, dose series – biochemical, fluorescence, selectivity assay for P. falciparum G6PD inhibitor project, dose response (AID 504792); type: functional
[19] = target: T8, Heat shock factor protein 1 (Mus musculus, UniProt P38532); test: enhancement of HSF1-driven luciferase signal – cell-based, NIH3T3, luminescence, dose retest, confirmation (AID 435004); type: functional;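 also: stress induced by proteasome inhibitor MG132 added 30 min after compound; luciferase reporter driven by HSF1 response element in NIH3T3 cells; actives raise luminescence as potentiators of the MG132 stress response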
T8 sequence (P38532 whole entry): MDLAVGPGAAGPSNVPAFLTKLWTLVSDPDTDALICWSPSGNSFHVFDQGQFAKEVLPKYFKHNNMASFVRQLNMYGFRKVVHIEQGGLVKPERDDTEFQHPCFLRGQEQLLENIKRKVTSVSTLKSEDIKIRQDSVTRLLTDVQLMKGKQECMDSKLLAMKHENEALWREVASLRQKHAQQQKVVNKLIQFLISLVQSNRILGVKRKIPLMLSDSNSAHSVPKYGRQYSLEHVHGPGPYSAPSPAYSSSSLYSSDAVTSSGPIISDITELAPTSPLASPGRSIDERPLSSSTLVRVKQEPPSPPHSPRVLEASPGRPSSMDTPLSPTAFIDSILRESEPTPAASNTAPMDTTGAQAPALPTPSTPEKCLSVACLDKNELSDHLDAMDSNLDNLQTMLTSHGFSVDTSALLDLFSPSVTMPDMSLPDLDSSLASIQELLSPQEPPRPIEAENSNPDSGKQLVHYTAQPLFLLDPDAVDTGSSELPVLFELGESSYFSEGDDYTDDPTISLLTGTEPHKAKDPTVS

[20] = Intein inhibitors as potential Tuberculosis drugs, a cytotoxicity screen. [Related pubchem assays (depositor defined):AID2221, AID2223, AID434968, AID435010, AID449749, AID449750, AID489010]; type: functional
[21] = target: Voltage-dependent T-type calcium channel subunit alpha-1H (Homo sapiens, UniProt O95180); test: inhibition of CACNA1H calcium flux – cell-based, SynthLib3 library, HEK293 Cav3.2, fluorescence (AID 493041); type: functional
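For CC50 in this document: cells exposed to compound for 72 hours before luminescence readout.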

Chain of Voltage-dependent T-type calcium channel subunit alpha-1H (O95180 whole entry): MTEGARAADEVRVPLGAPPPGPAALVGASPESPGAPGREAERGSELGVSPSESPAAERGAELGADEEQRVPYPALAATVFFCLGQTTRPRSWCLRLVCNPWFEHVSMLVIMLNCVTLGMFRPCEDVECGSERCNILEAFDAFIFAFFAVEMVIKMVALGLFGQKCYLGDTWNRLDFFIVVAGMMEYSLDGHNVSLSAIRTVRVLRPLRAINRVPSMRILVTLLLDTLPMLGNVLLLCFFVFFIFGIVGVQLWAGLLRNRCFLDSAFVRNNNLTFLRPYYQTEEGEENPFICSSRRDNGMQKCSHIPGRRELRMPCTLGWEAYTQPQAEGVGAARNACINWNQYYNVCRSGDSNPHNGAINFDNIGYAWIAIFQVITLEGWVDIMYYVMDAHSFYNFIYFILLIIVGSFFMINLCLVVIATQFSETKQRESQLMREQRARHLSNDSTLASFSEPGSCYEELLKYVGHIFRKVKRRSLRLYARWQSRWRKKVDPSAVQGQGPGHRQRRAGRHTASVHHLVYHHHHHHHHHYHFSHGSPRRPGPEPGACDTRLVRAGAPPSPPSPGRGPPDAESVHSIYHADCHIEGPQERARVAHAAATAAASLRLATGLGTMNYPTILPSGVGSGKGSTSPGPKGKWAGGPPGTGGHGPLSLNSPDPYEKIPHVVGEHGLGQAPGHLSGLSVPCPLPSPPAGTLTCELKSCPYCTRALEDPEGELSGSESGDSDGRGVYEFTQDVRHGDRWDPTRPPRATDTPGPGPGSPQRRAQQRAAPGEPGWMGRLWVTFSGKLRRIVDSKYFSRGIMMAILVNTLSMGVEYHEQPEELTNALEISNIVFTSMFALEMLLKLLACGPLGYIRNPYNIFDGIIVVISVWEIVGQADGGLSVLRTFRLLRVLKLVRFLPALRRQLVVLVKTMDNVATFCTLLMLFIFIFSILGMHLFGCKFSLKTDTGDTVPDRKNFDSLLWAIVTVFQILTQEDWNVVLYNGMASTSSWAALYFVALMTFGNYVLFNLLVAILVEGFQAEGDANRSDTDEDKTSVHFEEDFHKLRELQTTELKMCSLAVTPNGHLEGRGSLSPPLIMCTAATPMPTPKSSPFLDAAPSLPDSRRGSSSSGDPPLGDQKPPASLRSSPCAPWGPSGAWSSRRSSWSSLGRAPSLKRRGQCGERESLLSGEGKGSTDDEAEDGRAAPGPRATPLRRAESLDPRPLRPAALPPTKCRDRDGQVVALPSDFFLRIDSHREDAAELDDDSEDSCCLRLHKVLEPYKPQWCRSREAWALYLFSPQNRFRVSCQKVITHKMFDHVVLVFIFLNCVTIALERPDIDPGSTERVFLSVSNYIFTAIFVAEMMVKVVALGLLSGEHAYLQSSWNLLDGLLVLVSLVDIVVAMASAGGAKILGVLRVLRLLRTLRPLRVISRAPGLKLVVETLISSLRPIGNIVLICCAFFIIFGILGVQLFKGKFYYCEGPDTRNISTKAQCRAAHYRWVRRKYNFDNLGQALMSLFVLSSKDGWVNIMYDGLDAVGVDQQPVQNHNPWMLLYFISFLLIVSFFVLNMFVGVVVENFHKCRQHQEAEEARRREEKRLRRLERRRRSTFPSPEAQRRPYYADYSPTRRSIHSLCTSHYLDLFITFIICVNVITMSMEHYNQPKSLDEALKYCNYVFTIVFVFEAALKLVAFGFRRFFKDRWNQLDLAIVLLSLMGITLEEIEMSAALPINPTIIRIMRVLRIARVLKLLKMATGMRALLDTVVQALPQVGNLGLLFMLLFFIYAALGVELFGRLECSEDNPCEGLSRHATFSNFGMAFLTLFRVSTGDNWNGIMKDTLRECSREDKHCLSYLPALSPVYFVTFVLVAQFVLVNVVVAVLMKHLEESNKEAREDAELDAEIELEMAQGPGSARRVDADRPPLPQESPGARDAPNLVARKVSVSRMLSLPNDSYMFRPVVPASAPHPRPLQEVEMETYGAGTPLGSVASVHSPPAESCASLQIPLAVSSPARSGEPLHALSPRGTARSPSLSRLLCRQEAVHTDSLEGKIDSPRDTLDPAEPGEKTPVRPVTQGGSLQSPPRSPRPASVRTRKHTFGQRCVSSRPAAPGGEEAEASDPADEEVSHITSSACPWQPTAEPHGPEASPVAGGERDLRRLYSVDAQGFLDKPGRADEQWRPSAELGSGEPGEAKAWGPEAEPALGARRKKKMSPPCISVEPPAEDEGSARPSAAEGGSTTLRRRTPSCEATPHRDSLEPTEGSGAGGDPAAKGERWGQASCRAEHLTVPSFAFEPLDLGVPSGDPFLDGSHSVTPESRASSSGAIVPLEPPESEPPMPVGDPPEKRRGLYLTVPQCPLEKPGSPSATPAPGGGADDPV
T7 sequence (Q9HC97 whole entry): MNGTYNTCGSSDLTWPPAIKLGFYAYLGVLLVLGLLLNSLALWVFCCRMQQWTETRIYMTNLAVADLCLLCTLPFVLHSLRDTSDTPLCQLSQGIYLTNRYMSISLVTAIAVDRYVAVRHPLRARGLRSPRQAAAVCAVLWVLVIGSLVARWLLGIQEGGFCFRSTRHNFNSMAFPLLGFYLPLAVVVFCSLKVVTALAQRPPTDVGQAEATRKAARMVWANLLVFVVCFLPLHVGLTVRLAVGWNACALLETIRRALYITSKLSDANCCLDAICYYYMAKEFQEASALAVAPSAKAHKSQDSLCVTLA
Chain of G-protein coupled receptor 55 (Q9Y2T6 whole entry): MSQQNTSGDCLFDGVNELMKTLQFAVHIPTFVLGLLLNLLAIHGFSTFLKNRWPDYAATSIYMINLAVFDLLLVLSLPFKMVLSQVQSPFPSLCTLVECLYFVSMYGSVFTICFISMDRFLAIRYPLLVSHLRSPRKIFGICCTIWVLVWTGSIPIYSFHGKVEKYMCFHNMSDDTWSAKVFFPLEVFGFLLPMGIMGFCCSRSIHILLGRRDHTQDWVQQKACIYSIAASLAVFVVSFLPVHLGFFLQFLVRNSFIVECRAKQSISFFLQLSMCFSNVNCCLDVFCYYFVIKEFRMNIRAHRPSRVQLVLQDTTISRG
Chain of Glucose-6-phosphate 1-dehydrogenase (P11413 whole entry): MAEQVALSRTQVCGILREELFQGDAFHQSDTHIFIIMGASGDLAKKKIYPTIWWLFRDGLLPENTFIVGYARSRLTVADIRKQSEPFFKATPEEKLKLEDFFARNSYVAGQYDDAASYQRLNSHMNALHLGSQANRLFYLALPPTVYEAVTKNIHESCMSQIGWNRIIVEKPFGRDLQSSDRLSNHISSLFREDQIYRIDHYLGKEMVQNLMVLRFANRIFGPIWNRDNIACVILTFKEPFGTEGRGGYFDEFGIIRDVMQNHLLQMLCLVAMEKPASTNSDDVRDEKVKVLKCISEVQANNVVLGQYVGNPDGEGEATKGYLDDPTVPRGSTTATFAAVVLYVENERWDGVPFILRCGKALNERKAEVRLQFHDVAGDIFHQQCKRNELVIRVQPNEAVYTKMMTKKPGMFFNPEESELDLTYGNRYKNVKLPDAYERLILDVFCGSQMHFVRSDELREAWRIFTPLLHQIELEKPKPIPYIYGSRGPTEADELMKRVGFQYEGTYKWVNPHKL
Chain of Glyceraldehyde-3-phosphate dehydrogenase (P04406 whole entry): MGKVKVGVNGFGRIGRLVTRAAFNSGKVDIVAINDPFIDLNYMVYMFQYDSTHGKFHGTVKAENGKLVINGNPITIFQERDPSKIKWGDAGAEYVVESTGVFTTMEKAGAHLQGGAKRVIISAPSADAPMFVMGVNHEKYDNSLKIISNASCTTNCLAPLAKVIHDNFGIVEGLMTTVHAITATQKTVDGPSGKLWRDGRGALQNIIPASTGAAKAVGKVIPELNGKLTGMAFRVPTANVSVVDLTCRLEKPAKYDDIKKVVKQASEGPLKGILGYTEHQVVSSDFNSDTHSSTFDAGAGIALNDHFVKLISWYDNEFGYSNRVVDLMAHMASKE
Chain of Intestinal-type alkaline phosphatase (P09923 whole entry): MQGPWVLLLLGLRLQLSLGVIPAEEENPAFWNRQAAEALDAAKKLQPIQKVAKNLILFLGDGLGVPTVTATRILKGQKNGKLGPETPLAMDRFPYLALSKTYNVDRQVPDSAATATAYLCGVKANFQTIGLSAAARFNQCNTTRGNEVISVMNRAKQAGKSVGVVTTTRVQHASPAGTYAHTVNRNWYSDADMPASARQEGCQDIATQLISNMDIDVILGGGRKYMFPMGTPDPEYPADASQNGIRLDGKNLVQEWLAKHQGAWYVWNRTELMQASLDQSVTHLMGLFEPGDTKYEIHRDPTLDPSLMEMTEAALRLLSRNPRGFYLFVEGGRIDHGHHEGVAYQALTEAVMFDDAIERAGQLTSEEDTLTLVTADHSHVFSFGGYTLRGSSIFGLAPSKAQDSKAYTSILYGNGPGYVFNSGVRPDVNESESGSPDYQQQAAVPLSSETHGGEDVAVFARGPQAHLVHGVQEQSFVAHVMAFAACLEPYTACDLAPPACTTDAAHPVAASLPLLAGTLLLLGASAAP
Chain of Alkaline phosphatase, placental type (P05187 whole entry): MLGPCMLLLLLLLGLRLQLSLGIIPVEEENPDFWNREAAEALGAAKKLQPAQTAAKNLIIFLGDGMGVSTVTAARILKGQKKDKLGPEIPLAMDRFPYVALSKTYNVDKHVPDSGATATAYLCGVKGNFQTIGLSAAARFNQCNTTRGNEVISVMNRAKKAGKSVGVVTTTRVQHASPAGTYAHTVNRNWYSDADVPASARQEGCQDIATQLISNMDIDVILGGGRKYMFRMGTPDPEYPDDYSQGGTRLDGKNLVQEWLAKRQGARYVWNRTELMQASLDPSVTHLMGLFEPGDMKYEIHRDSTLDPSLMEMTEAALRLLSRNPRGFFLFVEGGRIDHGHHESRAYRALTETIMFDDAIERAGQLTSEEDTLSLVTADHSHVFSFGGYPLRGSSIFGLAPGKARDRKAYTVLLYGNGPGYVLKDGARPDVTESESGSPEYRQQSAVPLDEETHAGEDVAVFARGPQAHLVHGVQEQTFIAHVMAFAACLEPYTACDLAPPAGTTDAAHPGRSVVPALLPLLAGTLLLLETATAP

With `COC(=O)c1c(-c2ccc(SC)cc2)sc2ccc(OC)cc12` the IC50 [1] was 18.9 µM (active), the IC50 [2] was > 20 µM (inactive) and the IC50 [3] was > 20 µM (inactive).
With `CC1(C)CC(=O)c2c(n[nH]c2Cc2ccccc2)C1` the IC50 [4] was > 100 µM (not active), the IC50 [5] was > 100 µM (inactive) and the IC50 [6] was 1.24 µM (active).
For `Cc1ccc(/C=C2\Sc3ccccc3C2=O)s1`, the AC50 [7] was 11.8 µM (active), the IC50 [8] was 22.5 µM (inactive) and the EC50 [9] was 4.87 µM (active). For the same compound, the IC50 [10] was > 66.2 µM (inactive), the IC50 [11] was > 49.7 µM (inactive) and the IC50 [12] was 23.1 µM (inactive).
In the case of `O=C(CCCN1C(=O)S/C(=C\C=C\c2ccccc2)C1=O)Nc1ccc(C(=O)O)cc1`, the AC50 [7] is reported as 39.2 µM (active), the IC50 [13] is reported as 12.9 µM (inactive) and the EC50 [9] is reported as 51.2 µM (active). The IC50 [14] was 1.26 µM (active) and the IC50 [15] was 9.54 µM (active).
With `Cc1ccc(NC(=O)C2CC(=O)Nc3nc4ccccc4n32)c(C)c1` (configuration not stated) the EC50 [16] was 34.5 µM (active).
For `NCCNc1ccc(C(=O)N2c3ccccc3Sc3ccccc32)cc1[N+](=O)[O-]`, the IC50 [1] was 9.58 µM (active), the IC50 [2] was > 20 µM (inactive) and the AC50 [17] was 6.81 µM (active). For the same compound, the IC50 [3] was 10.9 µM (active) and the IC50 [18] was > 80 µM (inactive).
In the case of `Cc1ccc(Sc2ccc(NC(=O)CCl)cc2)c(C)c1`, the AC50 [7] is reported as 2.5 µM (active), the EC50 [9] is reported as 0.718 µM (active) and the EC50 [19] is reported as 9.67 µM (active). For the same compound, the CC50 [20] was 9.81 µM (active).
In the case of `N#Cc1ccc(-n2c(-c3ccccc3)nnc2-c2ccccc2)cc1C#N`, the AC50 [7] is reported as 3.83 µM (active), the EC50 [9] is reported as 3.36 µM (active) and the CC50 [20] is reported as > 40 µM (active).
For `CCCN1C[C@@H]2C(CNC(=O)c3cc(Cl)cc(Cl)c3)[C@@H]2C1` (some centres not stated), the EC50 [21] was 10 µM (active).
In the case of `CC(Cc1nnc(NC(=O)COc2ccc(F)cc2Cl)o1)CC(C)(C)C` (configuration not stated), the EC50 [21] is reported as 1.2 µM (active).
